Like-named read-outs stand apart in the source and are kept apart here. Bounds are passed on as bounds.

The text below walks through data of patent US6376670B1, “Quinoline-indole antimicrobial agents, uses and compositions related thereto” (Sepracor Inc., priority 1997, dated 2002).

What all share (assay): Determination of MIC values (BHI broth, 96 well microtiter plate)
What all share (assay type): cell-based

The subject of one test is Streptococcus pneumoniae. The following applies: Streptococcus pneumoniae, BHI broth, read-out: MIC S. pneu. An outline of the steps: (§1)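 Broth microdilution in BHI broth used final compound concentrations of 25 to 0.39 μg/mL, diluted from DMSO solutions. Inoculum was 10^5–10^6 cells/mL from cultures grown to a 0.5 McFarland standard. Plates were incubated overnight (~16 h) at 37 °C in about 7–10% CO2; MIC was the lowest concentration with no visible growth.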

The subject of test [1] is methicillin-resistant Staphylococcus aureus (MRSA). Particulars: Staphylococcus aureus, MRSA, 16 h, BHI broth, 37° C., overnight (about 16 hours); read-out: MIC MRSA. Summed up:
as §1

In test [2] the test system is vancomycin-resistant Enterococcus spp. (VRE). Particulars: Enterococcus, VRE, 16 h, BHI broth, 37° C., read-out: MIC VREF. Summed up: as §1
Where [3] appears, read: 37° C., overnight (about 16 hours).

Take `COc1ccc(NC(=O)c2cc(-c3c[nH]c4ccc(Br)cc34)nc3ccccc23)cc1` [Example 48]: the MIC in the test on Streptococcus pneumoniae (setting [3]) is less than 7 µg/mL; in test [1], less than 7 µg/mL; in test [2] (overnight (about 16 hours)), more than 25 µg/mL.

Take `O=C(O)c1ccc2[nH]cc(-c3cc(C(=O)O)c4ccccc4n3)c2c1` [Example 76]: the MIC (with Streptococcus pneumoniae (setting [3]); in test [1]; in test [2] (overnight (about 16 hours))) was more than 25 µg/mL throughout.

`NCc1ccc(CNC(=O)c2cc(-c3c[nH]c4ccc(Br)cc34)nc3ccc(-c4ccccc4)cc23)cc1` [Example 96]: the MIC (with Streptococcus pneumoniae (setting [3]); in test [1]; in test [2] (overnight (about 16 hours))) was less than 7 µg/mL in each case.

Turning to `NCc1ccc(CNC(=O)c2cc(-c3c[nH]c4ccc(Br)cc34)nc3c(Cl)cc(I)cc23)cc1` [Example 102], the MIC (with Streptococcus pneumoniae (setting [3]); in test [1]; in test [2] (overnight (about 16 hours))) was less than 7 µg/mL in each case.

For the molecule `NCc1ccc(CNC(=O)c2cc(-c3c[nH]c4ccc(Br)cc34)nc3ccc(C(F)(F)F)cc23)cc1` [Example 103], the MIC (in the test on Streptococcus pneumoniae (setting [3]); in test [1]; in test [2] (overnight (about 16 hours))) was less than 7 µg/mL each time.

Regarding `Cc1ccc2nc(-c3c[nH]c4ccc(Br)cc34)cc(C(=O)NCc3ccc(CN)cc3)c2c1` [Example 104], the MIC (in the test with Streptococcus pneumoniae (setting [3]); in test [1]; in test [2] (overnight (about 16 hours))) was less than 7 µg/mL throughout.

Regarding `NCCCNC(=O)c1cc(-c2c[nH]c3ccc(Br)cc23)nc2ccc(I)cc12` [Example 108], the MIC (with Streptococcus pneumoniae (setting [3]); in test [1]; in test [2] (overnight (about 16 hours))) was less than 7 µg/mL in each case.

Consider `NCCCCNC(=O)c1cc(-c2c[nH]c3ccc(Br)cc23)nc2ccc(I)cc12` [Example 109], for which the MIC (with Streptococcus pneumoniae (setting [3]); in test [1]; in test [2] (overnight (about 16 hours))) was less than 7 µg/mL in each case.

Regarding `NCCCCCNC(=O)c1cc(-c2c[nH]c3ccc(Br)cc23)nc2ccc(I)cc12` [Example 110], the MIC (in the test on Streptococcus pneumoniae (setting [3]); in test [1]; in test [2] (overnight (about 16 hours))) was less than 7 µg/mL throughout.

Consider `NCCCCCCNC(=O)c1cc(-c2c[nH]c3ccc(Br)cc23)nc2ccc(I)cc12` [Example 111], for which the minimal inhibitory concentration (MIC) (in the test with Streptococcus pneumoniae (setting [3]); in test [1]; in test [2] (overnight (about 16 hours))) was less than 7 µg/mL throughout.

For `NC1CCCCC1NC(=O)c1cc(-c2c[nH]c3ccc(Br)cc23)nc2ccc(I)cc12` (stereo not shown) [Example 112], the MIC (in the test with Streptococcus pneumoniae (setting [3]); in test [1]; in test [2] (overnight (about 16 hours))) was less than 7 µg/mL each time.

With `NC1CCC(NC(=O)c2cc(-c3c[nH]c4ccc(Br)cc34)nc3ccc(I)cc23)CC1` (stereo not shown) [Example 113], the MIC (in the test on Streptococcus pneumoniae (setting [3]); in test [1]; in test [2] (overnight (about 16 hours))) was less than 7 µg/mL throughout.

For the molecule `NCC1CCC(CNC(=O)c2cc(-c3c[nH]c4ccc(Br)cc34)nc3ccc(I)cc23)CC1` (stereo not shown) [Example 114], the MIC (with Streptococcus pneumoniae (setting [3]); in test [1]; in test [2] (overnight (about 16 hours))) was less than 7 µg/mL each time.

Regarding `NCC1CCCC(CNC(=O)c2cc(-c3c[nH]c4ccc(Br)cc34)nc3ccc(I)cc23)C1` (stereo not shown) [Example 115], the MIC (in the test with Streptococcus pneumoniae (setting [3]); in test [1]; in test [2] (overnight (about 16 hours))) was less than 7 µg/mL each time.

As to `NCc1cccc(CNC(=O)c2cc(-c3c[nH]c4ccc(Br)cc34)nc3ccc(I)cc23)c1` [Example 116], the MIC (with Streptococcus pneumoniae (setting [3]); in test [1]; in test [2] (overnight (about 16 hours))) was less than 7 µg/mL throughout.

For `O=C(c1cc(-c2c[nH]c3ccc(Br)cc23)nc2ccc(I)cc12)N1CCCNCC1` [Example 117], the MIC (in the test on Streptococcus pneumoniae (setting [3]); in test [1]; in test [2] (overnight (about 16 hours))) was less than 7 µg/mL each time.

Regarding `Cc1cc2nc(-c3c[nH]c4ccc(Br)cc34)cc(C(=O)NCc3ccc(CN)cc3)c2cc1C` [Example 118], the MIC (in the test with Streptococcus pneumoniae (setting [3]); in test [1]; in test [2] (overnight (about 16 hours))) was less than 7 µg/mL each time.

Turning to `Cn1cc(-c2cc(C(=O)NCc3ccc(CN)cc3)c3ccccc3n2)c2cc(Br)ccc21` [Example 119], the MIC in the test on Streptococcus pneumoniae (setting [3]) was less than 7 µg/mL; in test [1], less than 7 µg/mL; in test [2] (overnight (about 16 hours)) it was less than 25 µg/mL.

Consider `Cc1ccc2nc(-c3c[nH]c4ccc(Br)cc34)cc(C(=O)NCc3cccc(CN)c3)c2c1` [Example 122], for which the MIC (in the test on Streptococcus pneumoniae (setting [3]); in test [1]; in test [2] (overnight (about 16 hours))) was less than 7 µg/mL in each case.

Regarding `NCC1CCCC(CNC(=O)c2cc(-c3c[nH]c4ccc(Br)cc34)nc3ccc(Br)cc23)C1` (stereo not shown) [Example 123], the MIC (in the test with Streptococcus pneumoniae (setting [3]); in test [1]; in test [2] (overnight (about 16 hours))) was less than 7 µg/mL throughout.

Consider `NCC1CCC(CNC(=O)c2cc(-c3c[nH]c4ccc(Br)cc34)nc3ccc(Br)cc23)CC1` (stereo not shown) [Example 124], for which the MIC (with Streptococcus pneumoniae (setting [3]); in test [1]; in test [2] (overnight (about 16 hours))) was less than 7 µg/mL in each case.

For `Cc1cc2nc(-c3c[nH]c4ccc(Br)cc34)cc(C(=O)NCC3CCCC(CN)C3)c2cc1C` (stereo not shown) [Example 127], the MIC (in the test with Streptococcus pneumoniae (setting [3]); in test [1]; in test [2] (overnight (about 16 hours))) was less than 7 µg/mL throughout.

For `Cc1cc2nc(-c3c[nH]c4ccc(Br)cc34)cc(C(=O)NCC3CCC(CN)CC3)c2cc1C` (stereo not shown) [Example 128], the minimal inhibitory concentration (MIC) (in the test with Streptococcus pneumoniae (setting [3]); in test [1]; in test [2] (overnight (about 16 hours))) was less than 7 µg/mL throughout.

In the case of `NC1CCC(NC(=O)c2cc(-c3c[nH]c4ccc(Br)cc34)nc3ccc(Cl)cc23)CC1` (stereo not shown) [Example 131], the MIC in the test on Streptococcus pneumoniae (setting [3]) was less than 7 µg/mL; in test [1] it was less than 7 µg/mL; in test [2] (overnight (about 16 hours)), less than 25 µg/mL.

Regarding `NCC1CCCC(CNC(=O)c2cc(-c3c[nH]c4ccc(Br)cc34)nc3ccc(Cl)cc23)C1` (stereo not shown) [Example 132], the MIC (in the test with Streptococcus pneumoniae (setting [3]); in test [1]; in test [2] (overnight (about 16 hours))) was less than 7 µg/mL in each case.

Regarding `NCC1CCC(CNC(=O)c2cc(-c3c[nH]c4ccc(Br)cc34)nc3ccc(Cl)cc23)CC1` (stereo not shown) [Example 133], the MIC (in the test on Streptococcus pneumoniae (setting [3]); in test [1]; in test [2] (overnight (about 16 hours))) was less than 7 µg/mL throughout.

On to `Cn1cc(-c2cc(C(=O)NCc3ccc(CN)cc3)c3cc(I)ccc3n2)c2cc(Br)ccc21` [Example 299], for which, in the test on Streptococcus pneumoniae (S. pneu, overnight 37° C.), the MIC was less than 7 µg/mL.

As to `Cc1cccc2ccc(-c3c[nH]c4c(C)cccc34)nc12` [Example 471], the MIC is less than 7 µg/mL in the test with Streptococcus pneumoniae (37° C., about 16 hours) and more than 25 µg/mL in test [2] (about 16 hours).

Consider `NCc1cccc(CNC(=O)c2cc(-c3c[nH]c4ccc(Br)cc34)nc3ccccc23)c1` [compound 4], for which the MIC in test [1] was less than 25 µg/mL; in test [2] (overnight (about 16 hours)), less than 7 µg/mL.

As to `NCC1CCCC(CNC(=O)c2cc(-c3c[nH]c4ccc(Br)cc34)nc3ccccc23)C1` (stereo not shown) [compound 5], the MIC in test [1] and in test [2] (overnight (about 16 hours)) was less than 7 µg/mL in each case.

With `NCc1ccc(CNC(=O)c2ccc3nc(-c4c[nH]c5ccc(Br)cc45)ccc3c2)cc1` [compound 6], the minimum inhibitory concentration (MIC) in test [1] and in test [2] (overnight (about 16 hours)) was more than 25 µg/mL in each case.

On to `NCc1ccc(CNC(=O)c2cc(-c3c[nH]c4ccccc34)nc3ccccc23)cc1` [compound 7], for which the MIC in test [1] and in test [2] (overnight (about 16 hours)) was more than 25 µg/mL in each case.

Take `O=C(c1cc(-c2c[nH]c3ccccc23)nc2ccccc12)N1CCNCC1` [compound 8]: the MIC in test [1] and in test [2] (overnight (about 16 hours)) was more than 25 µg/mL each time.

On to `NC1CCCCC1NC(=O)c1cc(-c2c[nH]c3ccc(Br)cc23)nc2ccccc12` (stereo not shown) [compound 10], for which the MIC in test [1] and in test [2] (overnight (about 16 hours)) was less than 25 µg/mL throughout.

On to `O=C(c1cc(-c2c[nH]c3ccc(Br)cc23)nc2ccccc12)N1CCNCC1` [compound 11], for which the MIC in test [1] and in test [2] (overnight (about 16 hours)) was less than 25 µg/mL throughout.

`NCCCCNC(=O)c1cc(-c2c[nH]c3ccc(Br)cc23)nc2ccccc12` [compound 58]: the minimal inhibitory concentration (MIC) in test [1] and in test [2] (overnight (about 16 hours)) was less than 25 µg/mL throughout.

Usually MIC stands for the lowest concentration found to suppress growth.
